“And” between values parts separate entries of the source, which are not always exact repeats. Equal values may be shown once. Read-outs that look alike come from different tables or passages of the source.

One may read the IC50 as the midpoint of a concentration-inhibition curve.

Assay [1] addresses PRMT6 (Homo sapiens, UniProt Q96LA8). The assay is described as follows: Radioisotope-based methyltransferase assay (selectivity).
For assay [2], the target named is T1, DNMT3a (Homo sapiens, UniProt Q9Y6K1).
T1 construct: purchased Reaction Biology
The description is as above. The assay is classed as biochemical.

Assay [3] addresses T2, MLL1 (Homo sapiens, UniProt Q03164).
T2 construct: purchased Reaction Biology
Described as above. In kind it is biochemical.

In assay [4] the target is DNMT3b (Homo sapiens, UniProt Q9UBC3). Kind of assay: biochemical.
For assay [5], the system named is BCL11A and ZBTB7A in HUDEP-2 cells. The assay is described as follows: RT-qPCR of BCL11A and ZBTB7A in HUDEP-2 cells. The assay is classed as cell-based, human. Particulars: for expression of BCL11A and ZBTB7A: HUDEP-2. The procedure:
Total cellular RNA was prepared using the Tissue Total RNA Mini Kit (FAVORGEN), and cDNA was synthesized using ReverTra Ace Master Mix (TOYOBO). Expression of target genes was analyzed using THUNDERBIRD SYBR qPCR Mix (TOYOBO) on a CFX Connect Real Time System (Bio-Rad). The qPCR data were acquired on CFX Maestro (Bio-Rad). Primers are listed in Supplementary Table 10. GAPDH was used as a reference. Primers were purchased from INTEGRATED DNA TECHNOLOGIES or FASMAC.
On the technique in general: Quantitative PCR measures a nucleic acid by following its amplification.

Assay [6] deals with BCL11A occupancy at the β-globin locus. Kind of assay: ChIP-qPCR with antibody against BCL11A in HUDEP-2 cells. The assay is classed as cell-based, human. The arrangement: ChIP-qPCR, antibody against BCL11A: scale not given here. As to conditions: for occupancies of BCL11A in the BGLT3 gene region: HUDEP-2, 4 days. On the procedure: A total of 0.5–1 × 10^6 cells were cross-linked with 1% formaldehyde for 10 min at room temperature and the reaction was quenched with 250 mM glycine. Cross-linked cells were then lysed with buffer 1 (15 mM Tris-HCl (pH 7.5), 60 mM KCl, 15 mM NaCl, 5 mM MgCl2, 0.1 mM EGTA, 300 mM sucrose, […], 1 mM phenylmethanesulfonyl fluoride (PMSF), 0.5% NP40) and incubated on ice for 10 min. After centrifugation, the pellet was re-suspended in buffer 2 (15 mM Tris-HCl (pH 7.5), 60 mM KCl, 15 mM NaCl, 5 mM MgCl2, 0.1 mM EGTA, 1.2 M sucrose, […], 1 mM PMSF). After centrifugation, the pellet was then re-suspended in MNase buffer (50 mM Tris-HCl (pH 7.5), 1 mM CaCl2, 4 mM MgCl2, 320 mM sucrose, 1 mM PMSF) and digested with 100 U of micrococcal nuclease (Takara) at 37 °C for 15 min. After the reaction was quenched with 20 mM EDTA, the supernatants were incubated with antibodies (anti-H3K9me2 (1:100), Abcam, ab1220; anti-H3K9ac (1:100), Active Motif, 39917; Goat anti-IgG (H + L) (1:100), Jackson Immunoresearch; anti-BCL11A (1:100), Novus Biologicals, NB600-261; anti-ZBTB7A (1:100), Thermo Fisher Scientific, eBioscience (13E9); anti-CHD3 (1:100), Novus Biologicals, NB-100-60412; anti-CHD4 (1:100), abcam, ab240640) and Protein A/G PLUS-Agarose (Santa Cruz Biotechnology) overnight at 4 °C. Beads were washed sequentially once with the following buffers: wash buffer A (50 mM Tris-HCl (pH 7.5), 75 mM NaCl, 10 mM EDTA, 0.01% NP40), wash buffer B (50 mM Tris-HCl (pH 7.5), 100 mM NaCl, 10 mM EDTA, 0.01% NP40), wash buffer C (50 mM Tris-HCl (pH 7.5), 175 mM NaCl, 10 mM EDTA, 0.01% NP40). After treatment with proteinase K in buffer 4 (20 mM Tris-HCl (pH 8.0), 10 mM EDTA, 400 mM NaCl, 0.5% SDS) at 56 °C overnight, DNA was purified using the FastGene Gel/PCR Extraction Kit (Nippon Genetics). The samples were analyzed by qPCR. Primers are listed in Supplementary Table 10. ChIP-seq experiments were performed by GENEWIZ. Tracks were visualized using the integrative genome viewer. ChIP-seq analysis were analyzed Cutadapt (V1.9.1) for QC, FastQC (V0.10.1) for QC assessment, Bowtie (V2.1.0) for mapping, strand cross-correlation (SCC) for ChIP quality assessment, MACS2 for peak calling, and R package ChIPpeakAnno for Peak annotated.

[7] abbreviates: 0.01 μM, relative to DMSO = 1, replicate values.
Setting [8] is: 50 μM, relative to DMSO = 1, replicate values.
Setting [9] is: 100 μM, relative to DMSO = 1, replicate values.
[10] abbreviates: 200 μM, relative to DMSO = 1, replicate values.

T1 sequence (Q9Y6K1 whole entry, looked up): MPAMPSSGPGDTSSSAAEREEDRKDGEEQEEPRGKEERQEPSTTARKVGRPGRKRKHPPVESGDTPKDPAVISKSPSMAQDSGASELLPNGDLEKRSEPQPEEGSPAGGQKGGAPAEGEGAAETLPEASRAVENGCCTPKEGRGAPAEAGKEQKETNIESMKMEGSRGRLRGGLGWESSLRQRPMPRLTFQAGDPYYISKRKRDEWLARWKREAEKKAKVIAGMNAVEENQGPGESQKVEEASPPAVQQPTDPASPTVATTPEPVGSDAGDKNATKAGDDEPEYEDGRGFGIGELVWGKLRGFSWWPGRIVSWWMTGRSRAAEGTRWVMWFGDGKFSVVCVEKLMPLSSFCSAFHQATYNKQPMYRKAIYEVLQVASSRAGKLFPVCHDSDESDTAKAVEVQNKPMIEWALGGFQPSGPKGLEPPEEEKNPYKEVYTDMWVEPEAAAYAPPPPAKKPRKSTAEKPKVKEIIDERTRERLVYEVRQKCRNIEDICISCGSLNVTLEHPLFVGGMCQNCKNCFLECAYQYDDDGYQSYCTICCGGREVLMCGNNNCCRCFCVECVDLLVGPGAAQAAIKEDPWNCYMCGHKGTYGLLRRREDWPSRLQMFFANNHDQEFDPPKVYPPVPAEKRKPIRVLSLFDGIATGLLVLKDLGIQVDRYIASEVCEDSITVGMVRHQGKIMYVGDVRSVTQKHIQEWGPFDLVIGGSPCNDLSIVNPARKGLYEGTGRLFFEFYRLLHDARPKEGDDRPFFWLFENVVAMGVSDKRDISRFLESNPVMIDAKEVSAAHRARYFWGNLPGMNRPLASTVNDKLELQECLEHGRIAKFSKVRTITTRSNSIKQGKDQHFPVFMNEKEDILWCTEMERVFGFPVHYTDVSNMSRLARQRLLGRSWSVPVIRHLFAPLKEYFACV
PRMT6, sequence (Q96LA8 whole entry): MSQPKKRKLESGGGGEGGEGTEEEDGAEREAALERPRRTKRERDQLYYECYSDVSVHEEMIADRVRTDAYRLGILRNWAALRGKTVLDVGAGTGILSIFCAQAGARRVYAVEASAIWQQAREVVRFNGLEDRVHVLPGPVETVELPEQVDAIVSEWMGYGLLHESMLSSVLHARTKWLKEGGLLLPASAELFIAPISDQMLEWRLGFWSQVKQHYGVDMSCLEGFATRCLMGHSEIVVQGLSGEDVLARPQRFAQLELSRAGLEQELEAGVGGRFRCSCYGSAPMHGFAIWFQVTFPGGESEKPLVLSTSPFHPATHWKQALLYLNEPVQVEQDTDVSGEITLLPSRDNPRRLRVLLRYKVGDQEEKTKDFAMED

For the compound `Cc1c(C(=O)NC(CCC2CC2)C(=O)Nc2ccc(C#N)cc2)[nH]c2c1C(=O)CC(C)(C)C2` (stereo not shown) [RK-701], the IC50 in assay [1] was over 100000 nM; in assay [2] (DNMT3a, 1 μM SAM, read-out: IC50) it was over 100000 nM; in assay [2] (DNMT3a, RK-701 in duplicate, read-out: IC50), over 100000 nM; in assay [3] (MLL1, 1 μM SAM) it was over 100000 nM; in assay [3] (MLL1, RK-701 in duplicate), over 100000 nM; in assay [4] it was over 100000 nM. In addition, the “BCL11A expression in HUDEP-2 cells” value in assay [5] (setting [7]) was 0.7709 and 1.287 and 1.333. For the same compound, the “ZBTB7A expression in HUDEP-2 cells” value in assay [5] (setting [7]) was 0.7642 and 1.54 and 1.588. For the same compound, the “expression of BCL11A and ZBTB7A” value in assay [5] is “did not significantly affect”. The “ChIP-qPCR, antibody against BCL11A” value in assay [6] (BGLT3 locus, HUDEP-2 cells treated with RK-701, replicates) was 0.6314 and 0.7848 and 0.4856 and 0.8245 and 0.6776 and 0.5891; in assay [6] (HS1, HUDEP-2 cells treated with RK-701, replicates), 0.3627 and 0.3768 and 0.661 and 0.2587 and 0.1661 and 0.2446; in assay [6] (HS2, HUDEP-2 cells treated with RK-701, replicates) it was 0.4595 and 0.8137 and 0.6566 and 1.335 and 1.936 and 0.6063 and 1.138 and 0.7851; in assay [6] (HS3, HUDEP-2 cells treated with RK-701, replicates) it was 0.4555 and 0.6595 and 0.2297 and 0.7103 and 0.2788 and 0.5275; in assay [6] (HS4, HUDEP-2 cells treated with RK-701, replicates), 0.3987 and 0.3554 and 0.6174 and 0.2389; in assay [6] (β-globin promoter, HUDEP-2 cells treated with RK-701, replicates) it was 0.04573 and 0.1654 and 0.1051 and 0.1187 and 0.1597 and 0.09847 and 0.07533. Moreover, the “ChIP-qPCR, antibody against BCL11A” value was 0.1313 and 0.1159 and 0.3396 and 0.07171 and 0.121 and 0.0314 in assay [6] (γ-globin promoter, HUDEP-2 cells treated with RK-701, replicates); 0.018 and 0.05206 and 0.04359 and 0.0353 and 0.01403 and 0.04746 in assay [6] (δ-globin promoter, HUDEP-2 cells treated with RK-701, replicates). In addition, the “occupancies of BCL11A in the BGLT3 gene region” value in assay [6] is listed as “significantly suppressed”.

Turning to `NC(=O)NO` [Hydroxyurea, hydroxyurea], the “BCL11A expression in HUDEP-2 cells treated with hydroxyurea” value is 1.149 and 0.8339 and 1.127 in assay [5] (setting [8]); 1.406 and 0.8316 and 1.105 in assay [5] (setting [9]); 0.9537 and 0.8461 and 1.024 in assay [5] (setting [10]). The “ZBTB7A expression in HUDEP-2 cells treated with hydroxyurea” value is 1.5773 and 1.182 and 1.627 in assay [5] (setting [8]); 3.378 and 1.925 and 2.126 in assay [5] (setting [9]); 5.802 and 2.404 and 2.049 in assay [5] (setting [10]). Further, the “expression of BCL11A and ZBTB7A” value in assay [5] was “did not significantly affect”. Besides, the “ChIP-qPCR, antibody against BCL11A” value was 0.8842 and 1.017 and 0.83 and 0.5175 and 0.6913 and 0.7867 in assay [6] (BGLT3 locus, HUDEP-2 cells treated with hydroxyurea, replicates 1a-3b); 1.064 and 0.5507 and 0.5814 and 1.256 and 1.601 and 1.4807 in assay [6] (HS1, HUDEP-2 cells treated with hydroxyurea, replicates 1a-3b); 0.08682 and 2.447 and 1.693 and 2.52 and 0.949 and 0.09517 in assay [6] (HS2, HUDEP-2 cells treated with hydroxyurea, replicates 1a-3b); 1.655 and 3.8122 and 0.8818 and 0.7067 and 0.6435 and 2.151 in assay [6] (HS3, HUDEP-2 cells treated with hydroxyurea, replicates 1a-3b); 0.8173 and 1.536 and 0.3618 and 0.975 and 1.091 and 0.6403 in assay [6] (HS4, HUDEP-2 cells treated with hydroxyurea, replicates 1a-3b); 0.5672 and 1.0178 and 0.4614 and 1.054 and 0.8774 and 0.8041 in assay [6] (β-globin promoter, HUDEP-2 cells treated with hydroxyurea, replicates 1a-3b). For the same compound, the “ChIP-qPCR, antibody against BCL11A” value was 0.6219 and 0.3788 and 0.8175 and 0.7872 and 0.7026 and 0.3349 in assay [6] (γ-globin promoter, HUDEP-2 cells treated with hydroxyurea, replicates 1a-3b); 0.5737 and 0.8872 and 0.4941 and 0.547 and 0.6567 and 0.5438 in assay [6] (δ-globin promoter, HUDEP-2 cells treated with hydroxyurea, replicates 1a-3b). Further, the “occupancies of BCL11A in the BGLT3 gene region” value in assay [6] is reported as “decreased”.

`Nc1ncnc2c1ncn2[C@@H]1O[C@H](CSCC[C@H](N)C(=O)O)[C@@H](O)[C@H]1O` [SAH, S-(5'-Adenosyl)-L-homocysteine, reference compound]: the IC50 in assay [1] (IC50, PRMT6, 1 μM SAM) turned out to be 410 nM; in assay [2] (IC50, DNMT3a, 1 μM SAM), 300 nM; in assay [2] (IC50, DNMT3a, RK-701 in duplicate), 300 nM; in assay [3] (MLL1, 1 μM SAM), 1300 nM; in assay [3] (MLL1, RK-701 in duplicate), 1310 nM; in assay [4], 112 nM.

For the origin of these results see article PMC9837035 (Nature Communications, 2023).
